From PubChem BioAssay AID720512 (Broad Institute, 2013)
Active and inactive are the calls of the source. The rule behind the calls is not given here.

Target: Toxin B (TcdB) glycohydrolase, Clostridioides difficile 630
Test: TcdB glycohydrolase inhibitors, dose response, biochemical, cherry-pick, plate reader (AID 720512)
Conditions: recombinant TcdB glycohydrolase activity; for activity change, negative = inhibition: at 19.5 µM (top of the series)

SMILES	activity change, negative = inhibition	AC50
O=C(NCc1cccnc1)c1cc(C2CCCCN2S(=O)(=O)c2cccc3cccnc23)on1 (stereo unspecified)	inactive	
COC(=O)C1=C(c2ccc(OCc3ccccc3)cc2)C[C@@H]2CC[C@H]1N2C(=O)NCCCc1ccccc1	inactive	
O=C(Nc1ccncc1)c1ccc(-c2ccccc2)cc1	inactive	
Cc1ccc(S(=O)(=O)Oc2ccc(/C=N/NC(=O)c3nn(C)cc3[N+](=O)[O-])cc2)cc1	inactive	
CN(C)CCCNC(=O)C[C@H]1CC[C@@H]2[C@@H](COc3ccc(NC(=O)c4ccc5c(c4)OCO5)cc3C(=O)N2C)O1	inactive	
CCNC(=O)C[C@H]1CC[C@@H]2[C@H](COc3ccc(NC(C)=O)cc3C(=O)N2C)O1	inactive	
O=c1[nH]c2cc(O)ccc2c2ccccc12	inactive	
CSc1cccc(NC(=O)CCc2ccccc2)c1	inactive	
CCN1CCN(C(=O)C2=CC(c3ccc(OC)cc3)=NS(=O)(=O)N2C)CC1	inactive	
C[C@H](CO)N1C[C@H](C)[C@@H](CN(C)C(=O)Nc2ccc(C(F)(F)F)cc2)Oc2c(NS(=O)(=O)c3cn(C)cn3)cccc2C1=O	inactive	
CC(C)Cc1nnc(NC(=O)CCC(=O)NCc2ccccc2Cl)s1	inactive	
O=C(CC(c1ccccc1)c1ccccc1)Nc1ccc(O)cc1	inactive	
COc1ccc(-c2ccc3c(c2)[C@@H]2[C@@H](CCN2C(=O)C2CC2)[C@H](CO)N3C)cc1	inactive	
COc1ccc(/C=C/c2nc3ccccc3n2C)cc1	inactive	
COC(=O)c1sc2nc(SCc3ccccc3C)n(N)c(=O)c2c1C	inactive	
CC(Sc1nc(N)cc(=O)[nH]1)C(=O)NCC(=O)Nc1ccc(F)c(F)c1F (stereo unspecified)	inactive	
CC(C)(C)OCC(O)CN1CCN(C(=O)c2ccccc2)CC1 (stereo unspecified)	inactive	
Cc1ccc(S(=O)(=O)Nc2cccnc2Oc2ccc(Cl)cc2)cc1	inactive	
CC(=O)C1=CCC(c2ccc(C)cc2)N(S(=O)(=O)c2ccc(C)cc2)C1 (stereo unspecified)	inactive	
O=C(N/N=C/c1ccc(O)c(O)c1)C1CC1	inactive	
CC12CCC3C(=CCc4cc(O)ccc43)C1CC(=NO)C2O (stereo unspecified)	inactive	
Cc1onc(-c2ccccc2Cl)c1C(=O)Nc1cnn(Cc2ccccc2)c1	inactive	
CC(=O)N(c1ccccc1C)S(=O)(=O)c1ccc(Cl)cc1	inactive	

SMILES	activity change, negative = inhibition	AC50
OCC1CCCN(C(=S)Nc2ccc(Nc3ccccc3)cc2)C1 (stereo unspecified)	inactive	
O=C(COc1ccccc1)Nc1ccc(S(=O)(=O)Nc2ncccn2)cc1	inactive	
O=C(O)c1cc(-c2ccccc2Cl)n(-c2cccc(Cl)c2)n1	inactive	
CC(C)NC(=O)N1CC[C@@H]2[C@@H](CO)N(C)c3ccc(-c4ccc(F)cc4)cc3[C@@H]21		> 42 µM (inactive)
C/C(=N\NC(N)=S)c1ccc2c(c1)OCCO2	inactive	
Cc1cc(C(C)(C)C)cc(CN2CCN(S(=O)(=O)c3cccs3)CC2)c1O	inactive	
COc1cccc(C(CNc2ccc(S(=O)(=O)N3CCN(C)CC3)cc2[N+](=O)[O-])N(C)C)c1 (stereo unspecified)	inactive	
COc1cc(/C=C(\C#N)C(=O)N2CCCCC2)ccc1O	inactive	
Cc1ccc2ccc[n+](Cc3ccccc3)c2c1	inactive	
CC(OC(=O)c1cccnc1Cl)C(=O)NC1CCCCC1 (stereo unspecified)	inactive	
Cc1ccc(Oc2c(CO)c(-c3ccccc3)nn2C)cc1	inactive	
CCOc1ccccc1/C=C/c1onc(C)c1S(=O)(=O)N1CCC(C(=O)NC(C)C)CC1	inactive	
CCC(=O)Nc1ccc2c(c1)OC[C@H](C)N(C(=O)NC(C)C)C[C@H](C)[C@H](OC)CN(C)C2=O	inactive	
ONC(=Nc1ccccc1Cl)c1ccccc1Cl		> 39 µM (inactive)
O=C(O)c1ccc(-c2nnc(-c3ccccc3)o2)cc1	inactive	
CCCNC(=O)N1CC[C@@H]2[C@@H](CO)N(C)c3ccc(-c4ccc(F)cc4)cc3[C@@H]21		> 42 µM (inactive)
CC1C(=O)NN=C1c1ccc([N+](=O)[O-])cc1 (stereo unspecified)	inactive	
Cc1ccc(CSc2nc3nc(C)cc(C)c3c(=O)[nH]2)cc1	inactive	
O=C(NC(=S)NNS(=O)(=O)c1ccccc1)c1cccnc1	inactive	
Cc1ccc(S(=O)(=O)Oc2ccccc2/C=C2\SC(=O)NC2=O)cc1	inactive	
COc1cc(/C=C/C(=O)c2ccc([N+](=O)[O-])o2)ccc1O	inactive	
CC(Sc1nc2ccccc2n1C)C(=O)Nc1ccc(N2CCOCC2)cc1 (stereo unspecified)	inactive	
CN1c2ccc(-c3ccccc3)cc2[C@H]2[C@H](CCN2C(=O)CN2CCOCC2)[C@H]1CO		> 39 µM (inactive)

SMILES	activity change, negative = inhibition	AC50
O=c1oc(-c2ccc(Br)cc2)nc2ccccc12	inactive	
NC(=O)c1ccc2c(=O)c(O)c(-c3cc(Cl)c(N)c(Cl)c3)[nH]c2c1	inactive	
CCc1ccccc1NC(=O)CN1CCN(CC(=O)NCc2ccc(Cl)cc2)CC1	inactive	
S=c1[nH]nc2ccccn12	inactive	
Oc1ccc2c(ccc3[nH]cnc32)c1	inactive	
CC(=O)Nc1n[nH]c(=S)s1	inactive	
O=S(=O)(c1ccccc1)N1CCN(Cc2nnc(-c3ccccc3)o2)CC1	inactive	
O=C(CCNC(=O)c1ccccc1Cl)N/N=C\c1ccc(O)cc1	inactive	
COc1ccccc1CNC(=O)CNC(=O)N1CC(=O)Nc2ccccc21	inactive	
COC(=O)C1=C(c2ccc(F)cc2OCc2ccccc2)C[C@@H]2CC[C@H]1N2C(=O)NCCOc1ccccc1	inactive	
COc1ccc(CC(=O)C2C(=O)N(C)c3ccccc32)cc1OC (stereo unspecified)	inactive	
CC(=O)c1ccc(NC(=O)CNCC(c2ccccc2)N(C)C)cc1 (stereo unspecified)	inactive	
O=C(Nc1ccc(O)cc1)/C(=C\c1cccs1)NC(=O)c1ccccc1	inactive	
COc1ccccc1-n1c(SCC(=O)O)nc2c(sc(=S)n2-c2ccc(Cl)c(C)c2)c1=O	inactive	
Cc1ccc(C2=NS(=O)(=O)N(C)C(C(=O)NCc3ccccc3)=C2)cc1	inactive	
Cc1ccccc1COc1ccc2oc(C)c(C(=O)O)c2c1	inactive	
Cc1ccc(C2=NS(=O)(=O)N(C)C(C(=O)NCc3cccs3)=C2)cc1	inactive	
N=C(N)c1ccc(N=Nc2c(O)ccc3c2[nH]c2ccccc23)cc1		> 39 µM (inactive)
COc1ccc2nccc(/C=C/c3ccnc4ccc(OC)cc34)c2c1	inactive	
COCC(=O)N1CC[C@@H]2[C@H]1c1cc(-c3ccc(F)cc3)ccc1N(C)[C@H]2CO	inactive	
Cc1csc(N=Nc2ccc(N(C)C)cc2)[n+]1[O-]	inactive	
CCOC(=O)N1CCN(C(=S)NC(=O)c2ccc(F)c(F)c2)CC1	inactive	
Nc1ccc(C(=O)c2ccc3c(c2)OCCO3)cc1N	inactive	

SMILES	activity change, negative = inhibition	AC50
Nc1ccc(OCCCc2c(N)nc(N)nc2N)cc1		> 39 µM (inactive)
Cc1ccc2nc(-c3ccc4c(c3)OCCO4)cn2c1		> 39 µM (inactive)
CC(=O)N(C)C[C@@H]1Oc2cc(/C=C/c3ccccc3)ccc2S(=O)(=O)N([C@H](C)CO)C[C@@H]1C		> 39 µM (inactive)
c1ccc(-c2nnc(OCC3CCCO3)c3ccccc23)cc1 (stereo unspecified)	inactive	
O=C(C1CCOCC1)N1CC[C@@H]2[C@@H](CO)Nc3ccc(-c4ccc(F)cc4)cc3[C@@H]21	inactive	
O=[N+]([O-])c1ccc(S(=O)(=O)Nc2nc(-c3ccccc3)cs2)cc1	inactive	
COc1cc(/C=N/NC(=O)C2(O)c3ccccc3-c3ccccc32)ccc1O	inactive	
COC(=O)c1ccc(OC(=O)c2ccc(OC)cc2)c(OC)c1	inactive	
CCOc1ccc2ccccc2c1/C=N/NC(=O)c1ccncc1	inactive	
Cc1ccc(NNC(=O)c2ccno2)cc1C	inactive	
O=C(O)c1ccccc1C(=O)c1ccc2c(c1)N(Cc1cccc(F)c1)C(=O)CO2	inactive	
O=C(O)c1ccc(/C=N/NC(=S)NCCN2CCOCC2)cc1	inactive	
C=CC[C@@H](CC(=O)N(CCO)Cc1ccccc1)C(=O)NC[C@@H](OC(=O)[C@@H](CC=C)CC(=O)OC(C)(C)C)c1ccccc1	inactive	
COc1ccc(/C=C2/C(=O)C(C)(C(C)C)CCC2C)cc1 (stereo unspecified)	inactive	
CSc1ccccc1NC(=O)C1=CC(c2ccc(C)cc2)=NS(=O)(=O)N1C	inactive	
O=C(CNS(=O)(=O)c1ccccc1)N/N=C/c1ccc(O)cc1	inactive	
CCSc1nnc(NC(=O)C2CC2c2ccccc2)s1 (stereo unspecified)	inactive	
Cc1cc(C)c2sc(NNC(=O)C3COc4ccccc4O3)nc2c1 (stereo unspecified)	inactive	
Cc1ccc(C2=NS(=O)(=O)N(C)C(C(=O)NCc3ccc(F)cc3)=C2)cc1	inactive	
O=C(O)c1cc(S(=O)(=O)Nc2ccc3cn[nH]c3c2)ccc1Cl	inactive	
O=C(O)c1cc(NS(=O)(=O)c2ccc(NC3CCCCC3)c([N+](=O)[O-])c2)cc(C(=O)O)c1	inactive	
O=C(c1ccccc1)c1coc2ccc(O)c(Cl)c12		> 39 µM (inactive)
